{"source": "patent US9493466B2", "about": "“Treatment of cancer with TOR kinase inhibitors” (Signal Pharmaceuticals, LLC, priority 2011, dated 2016)", "system": "U87MG tumors", "test": "U87MG human glioblastoma xenograft model (Compound 1)", "format": "in vivo, SCID mice", "details": "for Tumor growth delay (TGD): to reach 1000 mm^3; for loss of initial body mass: end of first cycle (p<0.01)", "procedure": "U87MG Human Glioblastoma Xenograft Model (Compound 1). Efficacy Studies: Groups of female SCID mice bearing U87MG tumors (n=8-10/group) were dosed orally with vehicle or Compound 1 throughout the study, starting when tumor volumes reached approximately 200 mm^3. The twice daily (BID) dose groups were dosed with a 10-hour separation between morning and evening doses. In the positive control group, rapamycin was administered Q3D via intraperitoneal (IP) route. At the end of each study, plasma and/or tumor samples were collected.\nCell Line and Culture. U87MG cell line was obtained from American Tissue Culture Collection (ATCC) (Gaithersberg, Md.) and grown in growth medium containing MEM, 2 mM L-glutamine, 0.1 mM non-essential amino acids and 1 mM sodium pyruvate and 10% fetal bovine serum (FBS). The cells were detached from tissue culture flasks using trypsin-EDTA. After centrifugation, the cell pellets were suspended in phosphate buffered saline (PBS) and counted using a hemocytometer. The final volume was adjusted to 5×10^6 cells/0.1 mL of PBS.\nTumor Cell Inoculation. Mice were anesthetized with inhaled isoflurane and then inoculated with U87MG tumor cells subcutaneously on the right hind leg with 0.1 mL of a single cell suspension in PBS using a sterile 1 mL syringe fitted with a 26 gauge needle. Following inoculation, the mice were returned to microisolator cages\nRandomization of Animals. Following inoculation, tumors were allowed to grow to about 200 mm^3 prior to randomization. The typical number of days required for tumors to reach 200 mm^3 was 14-15 days. The tumor of each animal was measured and animals with tumors ranging between 175-250 mm^3 were included in the study. Animals from the pool were then distributed randomly into various cages and the cages were randomly assigned to vehicle, positive control, or test article groups. All of the mice were tagged with metal ear tags on the right ear.\nTest Article Preparation and Administration. Suspensions of Compound 1 were prepared in aqueous 0.5% CMC and 0.25% Tween-80. The formulations were homogenized using a Teflon™ pestle and mortar (Potter-Elvehjem tissue grinder). Between the doses, the formulated compound was stored under constant stirring using a magnetic stirrer at 4° C. in the dark. The test article and vehicle were administered by oral gavage. The positive control, rapamycin, was prepared as solution in 2% ethanol, 45% polyethyleneglycol 400, and 53% saline and administered by IP injection. Sterile syringes and gavage needles were used for compound administration. All of the procedures including injections were done in biosafety cabinets disinfected with 70% ethanol prior to use.\nTumor Measurements. Tumor volumes were determined prior to the initiation of treatment and were considered as the starting volumes. Thereafter, tumors were measured twice a week for the duration of the study. The long and short axes of each tumor were measured using a digital caliper in millimeters. Tumor volumes were calculated using the formula: width^2×length/2. The tumor volumes were expressed in cubic millimeters (mm^3).\nTumor Growth Delay (TGD) Calculations. Tumor growth delay is the difference in days for treated versus control tumors to reach a volume of 1000 mm^3. The TGD was calculated from the data plotted in a graph format.\nBody Weight Measurements. Initial body weights were recorded prior to the initiation of treatment using a digital scale. The percent body weight change during the course of the study was calculated using initial body weight measurements. Body weights of each animal were measured twice a week at the same time as the tumor measurements. Body weights were measured more frequently if significant decreases were noted during the course of the study.", "data": [{"smiles": "CO[C@H]1CC[C@H](N2C(=O)CNc3ncc(-c4ccc(C(C)(C)O)nc4)nc32)CC1", "note": "[Compound 1, 7-(6-(2-hydroxypropan-2-yl)pyridin-3-yl)-1-((1r,4r)-4-methoxycyclohexyl)-3,4-dihydropyrazino-[2,3-b]pyrazin-2(1H)-one]", "values": [{"measurement": "average tumor volume", "setting": "5 mg/kg BID oral, Day 24 (dosing from Day 14)", "value": "149±9", "unit": "mm^3"}, {"measurement": "average tumor volume", "setting": "5 mg/kg BID oral, Day 31", "value": "208±31", "unit": "mm^3"}, {"measurement": "tumor volume reduction compared with vehicle control", "setting": "5 mg/kg BID oral, Day 31", "value": 91, "unit": "%"}, {"measurement": "change in body weight", "setting": "5 mg/kg BID, 18 days", "value": "No significant change"}, {"measurement": "Tumor growth delay (TGD)", "setting": "5 mg/kg BID", "value": 11, "unit": "days"}, {"measurement": "average tumor volume", "setting": "10 mg/kg BID oral, Day 24 (dosing from Day 14)", "value": "96±4", "unit": "mm^3"}, {"measurement": "average tumor volume", "setting": "10 mg/kg BID oral, Day 31", "value": "96±13", "unit": "mm^3"}, {"measurement": "tumor volume reduction compared with vehicle control", "setting": "10 mg/kg BID oral, Day 31", "value": 96, "unit": "%"}, {"measurement": "loss of initial body mass", "setting": "10 mg/kg BID", "value": "about 10%"}, {"measurement": "Tumor growth delay (TGD)", "setting": "10 mg/kg BID", "value": 20, "unit": "days"}, {"measurement": "average tumor volume", "setting": "25 mg/kg Q2D oral, Day 24 (dosing from Day 14)", "value": "101±8", "unit": "mm^3"}, {"measurement": "average tumor volume", "setting": "25 mg/kg Q2D oral, Day 31", "value": "116±15", "unit": "mm^3"}, {"measurement": "tumor volume reduction compared with vehicle control", "setting": "25 mg/kg Q2D oral, Day 31", "value": 95, "unit": "%"}, {"measurement": "loss of initial body mass", "setting": "25 mg/kg Q2D", "value": "about 10%"}, {"measurement": "Tumor growth delay (TGD)", "setting": "25 mg/kg Q2D", "value": 17, "unit": "days"}, {"measurement": "tumor regression", "setting": "5 and 10 mg/kg BID and 25 mg/kg Q2D, persisted until Day 31", "value": "showed tumor regression"}, {"measurement": "lowest efficacious dose as determined by 65% tumor volume inhibition", "setting": "QD oral, 3 weeks", "value": 1, "unit": "mg/kg"}, {"measurement": "change in body weight", "setting": "QD study, 3 weeks, any of the groups", "value": "No statistically significant change"}, {"measurement": "tumor volume reduction", "setting": "all dose levels tested (0.5, 1, 3, 5 mg/kg QD, 3 weeks), Day 34", "value": "Significant (p<0.001) tumor volume reduction"}]}]}
